Here are results for two compounds from PMC5090206, “Fluselenamyl: A Novel Benzoselenazole Derivative for PET Detection of Amyloid Plaques (Aβ) in Alzheimer’s Disease” (Scientific Reports, 2016).

Test [1] concerns the target cortical Aβ plaques (Homo sapiens, UniProt P05067). Briefly: In vitro autoradiography of AD frontal cortex sections. The class given is binding. As for the experimental part: Literature precedents indicate the presence of at least three different binding sites, characterized as BS1, BS2 and BS3 on the Aβ fibrils in vitro[24] and extracts from AD homogenates. […] Overall, these investigations indicate that different PET tracers may be beneficial to better understand Aβ pathophysiology in vivo. […] Further, to evaluate ability of [^18F]-9 for labeling Aβ in autopsy confirmed human brain sections, autoradiography and immunohistochemical correlations were also performed.
(§1) Scientific Reports Version of August 4, 2016
Autoradiography of Human Brain Sections and Immunohistochemistry Correlation Autoradiography and immunohistochemistry (IHC) were performed as previously described14 with minor modifications. Briefly, a sample of frozen AD frontal cortex was sectioned using a TBS Minotome PLUS Cryostat set at a thickness of 12 microns. The tissue sections were thaw-mounted onto Superfrost Plus (Fisherbrand 12-550-15) microscope slides and allowed to air dry for 10–15 min prior to storage at -80 °C. […]
Autoradiography images were obtained on GE Typhoon System FLA-9500 (Tokyo, Japan) at 25 µm resolution. […] IHC images were obtained on a NanoZoomer 2.0-HT System ([…]) at 20x resolution with DAPI and TRITC fluorescence filters using NDP.scan 2.5 software ([…]). […]

Test [2] addresses T1, Aβ1–42 fibrils (Homo sapiens, UniProt P05067).
T1 construct: Commercially available amyloid peptide Aβ1-42; purchased
Briefly: Fluorescence binding assay of 5 with preformed Aβ1–42 fibrils. The note with it: preformed Aβ1–42 aggregates in PBS, single site binding model. As for the experimental part:
For assessing the ability of 5 to bind Aβ plaques; preliminary binding assays with preformed Aβ1–42 fibrils were performed in PBS. […] Additionally, it is also noteworthy that no fluorescence was observed using Aβ aggregates alone in PBS following excitation at 392 nm (a negative control).
as §1
Preparation of Aβ fibrils.
Commercially available amyloid peptide Aβ1-42 (433 µg) was gently dissolved in PBS (1 mL, pH 7.4, 100 µM)5. The solution was incubated for 36-48 h at 37°C with continuous gentle shaking to avoid gel formation at the meniscus. The aggregated peptide suspension was stored at -80°C until needed (the […]
Binding of 5 with Aβ fibrils
In vitro binding assays to preformed fibrils were performed using literature procedures. […]
indicating binding to Aβ aggregates, similar to enhancement in fluorescence of thioflavin-T in PBS (a positive control; data not shown). Additionally, it is also noteworthy that no fluorescence was observed using Aβ aggregates alone in PBS upon excitation at 410 nm (a negative control). All measurements were made in triplicates; fluorescence of either 5 alone or fibrils at a given concentration was subtracted. […]
SI Figure 2. […] All measurements were made in triplicates; fluorescence of either 5 alone or fibrils at a given concentration was subtracted. […]

Each structure is given as a SMILES string.

cortical Aβ plaques, sequence (P05067 672-711 limits assumed): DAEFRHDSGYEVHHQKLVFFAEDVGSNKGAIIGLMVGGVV
T1 sequence (P05067 672-713 limits assumed): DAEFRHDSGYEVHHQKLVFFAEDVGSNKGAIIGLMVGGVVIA

As for `CN(C)c1ncc(/C=C\c2nc3cc(OCC[18F])ccc3[se]2)cn1` [[^18F]-9], the labeling in autoradiography result in test [1] (2 nM, 60 min, AD frontal cortex sections (12 μm)) was “showed labeling of cortical Aβ plaques”. As a reminder, the Kd is a measure of binding affinity in units of concentration. For `CN(C)c1ncc(/C=C\c2nc3cc(OCCF)ccc3[se]2)cn1` [compound 5, (Z)-5-(2-(5-(2-fluoroethoxy)benzo[d][1,3]selenazol-2-yl)vinyl)-N,N-dimethylpyrimidin-2-amine], the Kd in test [2] was determined as 1.58 ± 0.05 nM. Also, in test [1] (1 μM cold ligand with 2 nM [18F]-9), the “effect on [18F]-9 binding in autoradiography” value is recorded as “binding was inhibited”.
